Measured values: PubChem BioAssay AID256 (DTP/NCI, 2004)
Several values for one entry are separate records, joined by “and”; a condition that tells them apart may be missing. Identical values can stand only once. Inconclusive results and toxic doses are left out. Rule for the calls: active = survival T/C of 150% or more; inactive = T/C below 125% in these data.

Tested on: CD2F1 mice, L1210 leukemia ip, survival T/C
Assay: NCI In Vivo Anticancer Drug Screen. Data for tumor model L1210 Leukemia (intraperitoneal) in CD2F1 (CDF1) mice
Details: higher = longer survival
How it was run: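 Read-out first: treated-group measurement over vehicle-control measurement, expressed as a ratio. Animals bore a transplanted tumor line and were dosed with compound or vehicle.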

[1] = endpoint: mean survival time, dose: 100.0 mg/kg/injection, schedule: Q01DX009 (ip), vehicle: other
[2] = endpoint: mean survival time, dose: 200.0 mg/kg/injection, schedule: Q01DX009 (ip), vehicle: other
[3] = endpoint: median survival time, dose: 12.5 mg/kg/injection, schedule: Q01DX009 (ip), vehicle: saline with Tween-80
[4] = endpoint: median survival time, dose: 25.0 mg/kg/injection, schedule: Q01DX009 (ip), vehicle: saline with Tween-80
[5] = endpoint: median survival time, dose: 50.0 mg/kg/injection, schedule: Q01DX009 (ip), vehicle: saline with Tween-80
[6] = endpoint: median survival time, dose: 100.0 mg/kg/injection, schedule: Q01DX009 (ip), vehicle: saline with Tween-80
[7] = endpoint: mean survival time, dose: 100.0 mg/kg/injection, schedule: Q01DX009 (ip), vehicle: saline with Tween-80
[8] = endpoint: mean survival time, dose: 200.0 mg/kg/injection, schedule: Q01DX009 (ip), vehicle: saline with Tween-80
[9] = endpoint: mean survival time, dose: 400.0 mg/kg/injection, schedule: Q01DX009 (ip), vehicle: saline with Tween-80
[10] = endpoint: mean survival time, dose: 100.0 mg/kg/injection, schedule: Q04DX003 (ip), vehicle: saline with Tween-80
[11] = endpoint: mean survival time, dose: 200.0 mg/kg/injection, schedule: Q04DX003 (ip), vehicle: saline with Tween-80
[12] = endpoint: mean survival time, dose: 400.0 mg/kg/injection, schedule: Q04DX003 (ip), vehicle: saline with Tween-80
[13] = endpoint: median survival time, dose: 200.0 mg/kg/injection, schedule: Q01DX009 (ip), vehicle: saline with Tween-80
[14] = endpoint: mean survival time, dose: 100.0 mg/kg/injection, schedule: Q01DX001 (ip), vehicle: saline with Tween-80
[15] = endpoint: mean survival time, dose: 200.0 mg/kg/injection, schedule: Q01DX001 (ip), vehicle: saline with Tween-80

Measured: T/C

Cc1cc(=O)cc(C(=O)O)o1
inactive: endpoint: mean survival time, dose: 50.0 mg/kg/injection, schedule: Q01DX009 (ip), vehicle: other 107 % of control | [1] 95 % of control | [2] 93 % of control

CNC(=O)n1c(N)nc(-c2ccccc2)c1-c1ccccc1
inactive: endpoint: median survival time, dose: 6.25 mg/kg/injection, schedule: Q01DX009 (ip), vehicle: saline with Tween-80 101 % of control | [3] 103 % of control | [4] 114 % of control | [5] 119 % of control | [6] 98 % of control

O=S(=O)(O)C(O)c1cccnc1 (stereo not given)
inactive: [7] 98 % of control | endpoint: mean survival time, dose: 100.0 mg/kg/injection, schedule: Q04DX003 (ip), vehicle: saline sonified 95 % of control | [8] 96 % of control | endpoint: mean survival time, dose: 200.0 mg/kg/injection, schedule: Q04DX003 (ip), vehicle: saline sonified 105 % of control | [9] 95 % of control | endpoint: mean survival time, dose: 400.0 mg/kg/injection, schedule: Q04DX003 (ip), vehicle: saline sonified 89 % of control

NC(=O)OCCc1ccccc1
inactive: endpoint: mean survival time, dose: 100.0 mg/kg/injection, schedule: Q04DX003 (ip), vehicle: Klucel (hydroxypropylcellulose) (HPC) 94 % of control | endpoint: mean survival time, dose: 200.0 mg/kg/injection, schedule: Q04DX003 (ip), vehicle: Klucel (hydroxypropylcellulose) (HPC) 102 % of control

O=C(O)c1cccc(S(=O)(=O)N(CCO)CCO)c1
inactive: [7] 94 % of control | [10] 98 % of control | [8] 94 % of control | [11] 94 % of control | [12] 94 % of control

CC([NH-])C(C)[NH-].CC([NH-])C(C)[NH-].[Cl][Co][Cl] (stereo not given)
inactive: endpoint: mean survival time, dose: 100.0 mg/kg/injection, schedule: Q04DX002 (ip), vehicle: saline 103 % of control

COc1ccc(Sc2cccc3c2C(=O)c2c(Sc4ccc(OC)cc4)cccc2C3=O)cc1
inactive: [7] 99 % of control | [8] 94 % of control | [9] 89 % of control

CC(=O)Nc1cscc1NC(C)=O
inactive: [3] 100 % of control | [4] 105 % of control and 111 % of control | [5] 91 % of control and 103 % of control | [6] 100 % of control and 101 % of control | [13] 102 % of control and 103 % of control | endpoint: median survival time, dose: 400.0 mg/kg/injection, schedule: Q01DX009 (ip), vehicle: saline with Tween-80 103 % of control and 108 % of control

COC1CCC2CCN(C)C(Cc3ccc(Oc4ccc(CC5C6CC(OC)CCC6CCN5C)cc4)cc3)C2C1 (stereo not given)
inactive: endpoint: mean survival time, dose: 1.56 mg/kg/injection, schedule: Q04DX002 (ip), vehicle: saline with Tween-80 90 % of control | endpoint: mean survival time, dose: 3.13 mg/kg/injection, schedule: Q04DX002 (ip), vehicle: saline with Tween-80 94 % of control

CN(Cc1ccc(Cl)cc1)N=Nc1ccc(C(=O)O)cc1
inactive: endpoint: mean survival time, dose: 7.9 mg/kg/injection, schedule: Q01DX009 (ip), vehicle: other 94 % of control | endpoint: mean survival time, dose: 15.7 mg/kg/injection, schedule: Q01DX009 (ip), vehicle: other 94 % of control | endpoint: mean survival time, dose: 31.3 mg/kg/injection, schedule: Q01DX009 (ip), vehicle: other 105 % of control | endpoint: mean survival time, dose: 62.5 mg/kg/injection, schedule: Q01DX009 (ip), vehicle: other 90 % of control | [1] 101 % of control | endpoint: mean survival time, dose: 125.0 mg/kg/injection, schedule: Q01DX009 (ip), vehicle: other 97 % of control | [2] 93 % of control

COc1ccc(-c2cc(-c3ccccc3)n[nH]2)cc1
inactive: [10] 93 % of control | [11] 97 % of control | [12] 93 % of control

COC(=O)c1cc(NS(=O)(=O)c2ccc(N)c([N+](=O)[O-])c2)cc(C(=O)OC)c1
inactive: [7] 98 % of control | [8] 95 % of control | [9] 96 % of control

O=C(O)C(=O)O.[Mn]
inactive: [10] 100 % of control | [11] 100 % of control | [12] 96 % of control

NC(=O)CC(NC(c1ccccc1)(c1ccccc1)c1ccccc1)C(=O)ON1C(=O)CCC1=O (stereo not given)
inactive: endpoint: mean survival time, dose: 100.0 mg/kg/injection, schedule: Q01DX001 (ip), vehicle: saline sonified 96 % of control | endpoint: mean survival time, dose: 200.0 mg/kg/injection, schedule: Q01DX001 (ip), vehicle: saline sonified 98 % of control | endpoint: mean survival time, dose: 400.0 mg/kg/injection, schedule: Q01DX001 (ip), vehicle: saline sonified 105 % of control

Nc1ncnc2nc(-c3ccc(C[P+](c4ccccc4)(c4ccccc4)c4ccccc4)cc3)[nH]c12
inactive: [10] 101 % of control | [11] 95 % of control | [12] 101 % of control

Cc1ccc2c(c1)n([O-])c1cc(Cl)ccc1[n+]2=O
inactive: [3] 101 % of control and 111 % of control | [4] 120 % of control | endpoint: median survival time, dose: 30.0 mg/kg/injection, schedule: Q01DX009 (ip), vehicle: saline with Tween-80 108 % of control | [5] 114 % of control and 112 % of control | endpoint: median survival time, dose: 60.0 mg/kg/injection, schedule: Q01DX009 (ip), vehicle: saline with Tween-80 117 % of control | [6] 114 % of control and 122 % of control | endpoint: median survival time, dose: 167.0 mg/kg/injection, schedule: Q01DX009 (ip), vehicle: saline with Tween-80 123 % of control | [13] 124 % of control and 97 % of control | endpoint: median survival time, dose: 278.0 mg/kg/injection, schedule: Q01DX009 (ip), vehicle: saline with Tween-80 121 % of control

CC1(C)OCC(C(=O)C(OC(=O)c2ccccc2)C2COC(C)(C)O2)O1 (stereo not given)
inactive: endpoint: mean survival time, dose: 50.0 mg/kg/injection, schedule: Q01DX009 (ip), vehicle: Klucel (hydroxypropylcellulose) (HPC) 94 % of control | endpoint: mean survival time, dose: 100.0 mg/kg/injection, schedule: Q01DX009 (ip), vehicle: Klucel (hydroxypropylcellulose) (HPC) 88 % of control | endpoint: mean survival time, dose: 200.0 mg/kg/injection, schedule: Q01DX009 (ip), vehicle: Klucel (hydroxypropylcellulose) (HPC) 98 % of control

Nc1c(Cl)cccc1Cl (tested in a mixture with another compound)
inactive: [14] 89 % of control | [7] 99 % of control | [15] 91 % of control | [8] 98 % of control | endpoint: mean survival time, dose: 400.0 mg/kg/injection, schedule: Q01DX001 (ip), vehicle: saline with Tween-80 91 % of control | [9] 107 % of control

N#C/C=C1\NC(=O)CS1
inactive: [7] 114 % of control | [10] 96 % of control | [8] 101 % of control | [11] 100 % of control | [12] 102 % of control

COc1ccc(/C(C)=N/N=C(\C)c2ccc(OC)cc2)cc1
inactive: endpoint: mean survival time, dose: 25.0 mg/kg/injection, schedule: Q04DX003 (ip), vehicle: saline with Tween-80 105 % of control | endpoint: mean survival time, dose: 50.0 mg/kg/injection, schedule: Q04DX003 (ip), vehicle: saline with Tween-80 102 % of control | [10] 102 % of control

CN1CCC(O)(c2ccccc2C2=NC(C)(C)CO2)CC1
inactive: endpoint: mean survival time, dose: 50.0 mg/kg/injection, schedule: Q04DX002 (ip), vehicle: saline with Tween-80 96 % of control | [14] 103 % of control | endpoint: mean survival time, dose: 100.0 mg/kg/injection, schedule: Q04DX002 (ip), vehicle: saline with Tween-80 101 % of control | [15] 102 % of control | endpoint: mean survival time, dose: 200.0 mg/kg/injection, schedule: Q04DX002 (ip), vehicle: saline with Tween-80 108 % of control

CC(C)(CNC1CCCCC1)OC(=O)c1ccc([N+](=O)[O-])cc1
inactive: endpoint: mean survival time, dose: 75.0 mg/kg/injection, schedule: Q01DX001 (ip), vehicle: saline 94 % of control | endpoint: mean survival time, dose: 150.0 mg/kg/injection, schedule: Q01DX001 (ip), vehicle: saline 99 % of control | endpoint: mean survival time, dose: 300.0 mg/kg/injection, schedule: Q01DX001 (ip), vehicle: saline 94 % of control

O=C(Nc1ccccc1I)c1ccccc1
inactive: [10] 110 % of control | [11] 98 % of control | [12] 98 % of control

CC12CCC(O)CC1CCC1C2CCC2(C)C(C3=CC(=O)OC3)CCC12O (stereo not given)
inactive: endpoint: mean survival time, dose: 12.5 mg/kg/injection, schedule: Q04DX003 (ip), vehicle: Klucel (hydroxypropylcellulose) (HPC) 92 % of control | endpoint: mean survival time, dose: 25.0 mg/kg/injection, schedule: Q04DX003 (ip), vehicle: Klucel (hydroxypropylcellulose) (HPC) 100 % of control | endpoint: mean survival time, dose: 50.0 mg/kg/injection, schedule: Q04DX003 (ip), vehicle: Klucel (hydroxypropylcellulose) (HPC) 92 % of control

CC1(C)OC2COC3(COC(C)(C)O3)C(OS(C)(=O)=O)C2O1 (stereo not given)
inactive: [7] 102 % of control | [8] 93 % of control | [9] 95 % of control

CC(C)OC(=O)CCl
inactive: [14] 100 % of control | [15] 100 % of control

CC(C)C1(C(C)C)OCCO1
inactive: endpoint: mean survival time, dose: 50.0 mg/kg/injection, schedule: Q01DX009 (ip), vehicle: saline with Tween-80 98 % of control | [7] 93 % of control | [10] 97 % of control | [8] 95 % of control | [11] 88 % of control
